# What was measured:
# [1] = target: T1, ATP-binding cassette sub-family C member 2 (Rattus norvegicus, UniProt Q63120); experiment: TP_TRANSPORTER: uptake in bile canalicular membrane vesicles (SD); type: functional, cell membranes, Sprague-Dawley, Bile canalicular membrane vesicle
# [2] = target: T1, ATP-binding cassette sub-family C member 2; experiment: TP_TRANSPORTER: inhibition of DNP-SG uptake in bile canalicular membrane vesicles from SD rat; type: functional, cell membranes, Sprague-Dawley, Bile canalicular membrane vesicle
# [3] = target: T1, ATP-binding cassette sub-family C member 2; experiment: TP_TRANSPORTER: uptake in bile canalicular membrane vesicles (EHBR); type: functional, cell membranes, Bile canalicular membrane vesicle
# [4] = target: T1, ATP-binding cassette sub-family C member 2; experiment: TP_TRANSPORTER: uptake in canalicular membrane vesicles of liver (EHBR); type: functional, cell membranes, Canalicular membrane vesicle
# [5] = target: T1, ATP-binding cassette sub-family C member 2; experiment: TP_TRANSPORTER: uptake in canalicular membrane vesicles of liver (SD); type: functional, cell membranes, Sprague-Dawley, Canalicular membrane vesicle
# T1 sequence (Q63120 whole entry): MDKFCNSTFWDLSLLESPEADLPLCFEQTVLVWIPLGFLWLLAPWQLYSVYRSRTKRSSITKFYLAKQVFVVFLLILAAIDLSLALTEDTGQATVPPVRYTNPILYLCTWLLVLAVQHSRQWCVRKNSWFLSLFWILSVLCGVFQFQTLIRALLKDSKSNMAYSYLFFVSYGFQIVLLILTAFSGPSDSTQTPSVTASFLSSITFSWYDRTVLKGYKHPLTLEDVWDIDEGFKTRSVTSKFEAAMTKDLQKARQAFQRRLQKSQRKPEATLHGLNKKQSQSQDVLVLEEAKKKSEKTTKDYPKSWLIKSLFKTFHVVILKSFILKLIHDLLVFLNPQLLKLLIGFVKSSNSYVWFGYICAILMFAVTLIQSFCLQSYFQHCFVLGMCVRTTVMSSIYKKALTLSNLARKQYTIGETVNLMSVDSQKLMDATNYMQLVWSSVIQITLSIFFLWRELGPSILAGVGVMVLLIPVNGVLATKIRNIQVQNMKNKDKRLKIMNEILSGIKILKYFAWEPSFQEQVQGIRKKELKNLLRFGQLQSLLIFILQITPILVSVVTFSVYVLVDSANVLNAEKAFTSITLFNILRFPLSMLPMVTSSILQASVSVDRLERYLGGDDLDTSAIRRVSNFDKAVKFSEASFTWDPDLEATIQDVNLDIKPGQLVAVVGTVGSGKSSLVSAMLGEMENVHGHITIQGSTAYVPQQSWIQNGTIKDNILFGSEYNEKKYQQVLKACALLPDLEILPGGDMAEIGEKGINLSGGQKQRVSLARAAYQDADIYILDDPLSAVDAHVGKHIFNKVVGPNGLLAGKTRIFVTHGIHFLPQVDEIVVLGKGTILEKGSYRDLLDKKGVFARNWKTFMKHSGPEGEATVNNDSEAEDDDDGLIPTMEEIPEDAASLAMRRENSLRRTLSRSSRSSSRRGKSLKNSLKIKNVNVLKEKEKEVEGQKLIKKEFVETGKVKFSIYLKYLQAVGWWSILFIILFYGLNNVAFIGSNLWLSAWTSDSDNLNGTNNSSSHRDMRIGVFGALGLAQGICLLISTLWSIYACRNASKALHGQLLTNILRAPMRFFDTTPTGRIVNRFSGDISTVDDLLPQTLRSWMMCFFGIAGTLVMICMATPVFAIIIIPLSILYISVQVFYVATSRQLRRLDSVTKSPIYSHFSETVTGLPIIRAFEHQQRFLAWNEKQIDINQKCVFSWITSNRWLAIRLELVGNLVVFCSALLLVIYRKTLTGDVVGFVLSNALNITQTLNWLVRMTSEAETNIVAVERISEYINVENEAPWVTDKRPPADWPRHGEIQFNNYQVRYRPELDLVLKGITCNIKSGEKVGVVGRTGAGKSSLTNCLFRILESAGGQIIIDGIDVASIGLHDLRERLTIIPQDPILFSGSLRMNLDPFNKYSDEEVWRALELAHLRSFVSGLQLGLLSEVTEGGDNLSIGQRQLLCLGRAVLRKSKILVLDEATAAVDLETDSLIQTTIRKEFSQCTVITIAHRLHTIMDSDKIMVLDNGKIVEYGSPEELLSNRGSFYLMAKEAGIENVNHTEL
SMILES,Activity [1],Ki [2] [µM],Activity [3],Activity [4],Activity [5]
CCc1c2c(nc3ccc(OC[C@@H]4O[C@H](C(=O)O)[C@@H](O)[C@H](O)[C@H]4O)cc13)-c1cc3c(c(=O)n1C2)COC(=O)[C@]3(O)CC,substrate [+],1.62,substrate [+],–,–
CCc1c2c(nc3ccc(O)cc13)-c1cc([C@@](O)(CC)C(=O)O)c(CO)c(=O)n1C2,substrate [+],18.3,substrate [+],–,–
CCc1c2c(nc3ccc(OC(=O)N4CCC(N5CCCCC5)CC4)cc13)-c1cc([C@@](O)(CC)C(=O)O)c(CO)c(=O)n1C2,–,96.6,–,substrate [+],substrate [+]
CCc1c2c(nc3ccc(O[C@@H]4O[C@H](C(=O)O)[C@@H](O)[C@H](O)[C@H]4O)cc13)-c1cc([C@@](O)(CC)C(=O)O)c(CO)c(=O)n1C2,substrate [+],1.03,substrate [+],–,–

# Source: ChEMBL document CHEMBL2074394, “Multispecific organic anion transporter is responsible for the biliary excretion of the camptothecin derivative irinotecan and its metabolites in rats” (J Pharmacol Exp Ther, 1997)
